15 compounds from patent US20250381243A1, “HETEROCYCLES AND USES THEREOF” (Kumquat Biosciences Inc., priority 2022, published 2025) can be followed below.

A value given as a limit tells only on which side of the number the result lay.

One test relates to A549 cells. Briefly: Cell proliferation assay (CellTiter-Glo), cells with K-Ras G12S mutation. As to conditions: Homo sapiens, 500 nM to 5 μM (mixed units), read-out: Inhibition of A549 Cells (IC50). Type of test: cell-based. The protocol:
A549 (ATCC CRL-185) and LS123 (ATCC CRL-255) cell lines comprise a G12S mutation and can be used to assess Ras cellular signaling in vitro, e.g., in response to treatment with a compound described herein. A549 culture medium is prepared with RPMI-1640 and 10% heat-inactivated FBS. LS123 culture medium is prepared with RPMI-1640 and 10% heat-inactivated FBS. A CellTiter-Glo (CTG) luminescent based assay (Promega) is used to assess growth of the cells, as a measurement of the ability of the compounds herein to inhibit Ras signaling in the cells. The cells (e.g., 800 per well) are seeded in their respective culture medium in standard tissue culture-treated 384-well format plates (Falcon #08-772-116) or ultra-low attachment surface 384-well format plates (S-Bio #MS-9384WZ). The day after plating, cells are treated with a dilution series (e.g., a 10 point 3-fold dilution series) of the compounds herein (e.g., approximately 40 μl final volume per well). Cell viability can be monitored (e.g., approximately 6 days later) according to the manufacturer's recommended instructions, where CellTiter-Glo reagent is added (e.g., approximately 10 μl), vigorously mixed, covered, and placed on a plate shaker (e.g., approximately for 20 min) to ensure sufficient cell lysis prior to assessment of luminescent signal. The IC50 values are determined using the four parameter fit. The resulting IC50 value is a measurement of the ability of the test compound to reduce cell growth of Ras-driven cells (e.g., tumor cell lines) in vitro and/or in vivo.
As for `CN(C(=O)n1cncn1)C1CN(c2nc(OC[C@@]34CCCN3C[C@H](F)C4)nc3c(F)c(-c4ccc(F)c5sc(N)c(C#N)c45)c(Cl)cc23)CC12CC2` (stereo partly drawn) [Compound 140, N-(5-(7-(2-amino-3-cyano-7-fluorobenzo[b]thiophen-4-yl)-6-chloro-8-fluoro-2-(((2R,7aS)-2-fluorotetrahydro-1H-pyrrolizin-7a(5H)-yl)methoxy)quinazolin-4-yl)-5-azaspiro[2.4]heptan-7-yl)-N-methyl-1H-1,2,4-triazole-1-carboxamide], the half-maximal inhibitory concentration (IC50) fell in the range of 500 to 5000 nM.
In the case of `N#CCCN(C(=O)n1cncn1)C1CCN(c2nc(OC[C@@]34CCCN3C[C@H](F)C4)nc3c(F)c(-c4ccc(F)c5sc(N)c(C#N)c45)c(Cl)cc23)C1` (stereo partly drawn) [Compound 145, N-(1-(7-(2-amino-3-cyano-7-fluorobenzo[b]thiophen-4-yl)-6-chloro-8-fluoro-2-(((2R,7aS)-2-fluorotetrahydro-1H-pyrrolizin-7a(5H)-yl)methoxy)quinazolin-4-yl)pyrrolidin-3-yl)-N-(2-cyanoethyl)-1H-1,2,4-triazole-1-carboxamide], the IC50 was 500 to 5000 nM.
`CCN(C(=O)n1cnc(Cl)n1)C1CCN(c2nc(OC[C@@]34CCCN3C[C@H](F)C4)nc3c(F)c(-c4ccc(F)c5sc(N)c(C#N)c45)c(Cl)cc23)C1C` (stereo partly drawn) [Compound 149, N-(1-(7-(2-amino-3-cyano-7-fluorobenzo[b]thiophen-4-yl)-6-chloro-8-fluoro-2-(((2R,7aS)-2-fluorotetrahydro-1H-pyrrolizin-7a(5H)-yl)methoxy)quinazolin-4-yl)-2-methylpyrrolidin-3-yl)-3-chloro-N-ethyl-1H-1,2,4-triazole-1-carboxamide]: the IC50 was 500 to 5000 nM.

The test is the same for the next values; noted with them: Homo sapiens, ≤500 nM, read-out: Inhibition of A549 Cells (IC50).
With `CC(C)[C@H]1N(C(=O)n2cnc(Cl)n2)C[C@@]12CN(c1nc(OC[C@@]34CCCN3C[C@H](F)C4)nc3c(F)c(-c4ccc(F)c5sc(N)c(C#N)c45)c(Cl)cc13)CCO2` [Compound 134, 2-amino-4-(6-chloro-4-((1R,4S)-2-(3-chloro-1H-1,2,4-triazole-1-carbonyl)-1-isopropyl-5-oxa-2,8-diazaspiro[3.5]nonan-8-yl)-8-fluoro-2-(((2R,7aS)-2-fluorotetrahydro-1H-pyrrolizin-7a(5H)-yl)methoxy)quinazolin-7-yl)-7-fluorobenzo[b]thiophene-3-carbonitrile], the concentration for half-maximal inhibition (IC50) was at most 500 nM.
With `N#Cc1c(N)sc2c(F)ccc(-c3c(Cl)cc4c(N5CCC(N(C(=O)n6cncn6)C6CC6)C5)nc(OC[C@@]56CCCN5C[C@H](F)C6)nc4c3F)c12` (stereo partly drawn) [Compound 135, N-(1-(7-(2-amino-3-cyano-7-fluorobenzo[b]thiophen-4-yl)-6-chloro-8-fluoro-2-(((2R,7aS)-2-fluorotetrahydro-1H-pyrrolizin-7a(5H)-yl)methoxy)quinazolin-4-yl)pyrrolidin-3-yl)-N-cyclopropyl-1H-1,2,4-triazole-1-carboxamide], the half-maximal inhibitory concentration (IC50) was at most 500 nM.
For the compound `C=CCN(C[C@@H]1CN(C(=O)n2cnc(F)n2)[C@@H]1C1(C)CC1)c1nc(OC[C@@]23CCCN2C[C@H](F)C3)nc2c(F)c(-c3ccc(F)c4sc(N)c(C#N)c34)c(Cl)cc12` [Compound 136, 4-(4-(allyl(((2S,3R)-1-(3-fluoro-1H-1,2,4-triazole-1-carbonyl)-2-(1-methylcyclopropyl)azetidin-3-yl)methyl)amino)-6-chloro-8-fluoro-2-(((2R,7aS)-2-fluorotetrahydro-1H-pyrrolizin-7a(5H)-yl)methoxy)quinazolin-7-yl)-2-amino-7-fluorobenzo[b]thiophene-3-carbonitrile], the IC50 is at most 500 nM.
The same measure, in the same setting: as for `CC(C)[C@H]1N(C(=O)n2cnc(Cl)n2)C[C@]12C[C@@H](CC#N)CN(c1nc(OC[C@@]34CCCN3C[C@H](F)C4)nc3c(F)c(-c4ccc(F)c5sc(N)c(C#N)c45)c(Cl)cc13)C2` [Compound 137, 2-amino-4-(6-chloro-4-((1R,4R,8S)-2-(3-chloro-1H-1,2,4-triazole-1-carbonyl)-8-(cyanomethyl)-1-isopropyl-2,6-diazaspiro[3.5]nonan-6-yl)-8-fluoro-2-(((2R,7aS)-2-fluorotetrahydro-1H-pyrrolizin-7a(5H)-yl)methoxy)quinazolin-7-yl)-7-fluorobenzo[b]thiophene-3-carbonitrile], the figure is at most 500 nM; as for `CC(C)[C@H]1N(C(=O)n2cnc(C(F)F)n2)C[C@@]12CN(c1nc(OC[C@@]34CCCN3C[C@H](F)C4)nc3c(F)c(-c4ccc(F)c5sc(N)c(C#N)c45)c(Cl)cc13)CCO2` [Compound 138, 2-amino-4-(6-chloro-4-((1R,4S)-2-(3-(difluoromethyl)-1H-1,2,4-triazole-1-carbonyl)-1-isopropyl-5-oxa-2,8-diazaspiro[3.5]nonan-8-yl)-8-fluoro-2-(((2R,7aS)-2-fluorotetrahydro-1H-pyrrolizin-7a(5H)-yl)methoxy)quinazolin-7-yl)-7-fluorobenzo[b]thiophene-3-carbonitrile], at most 500 nM.
For the compound `CC(C)[C@H]1N(C(=O)n2cnc(F)n2)C[C@]12CCCCN(c1nc(OC[C@@]34CCCN3C[C@H](F)C4)nc3c(F)c(-c4ccc(F)c5sc(N)c(C#N)c45)c(Cl)cc13)C2` [Compound 141, 2-amino-4-(6-chloro-8-fluoro-4-((1R,4R)-2-(3-fluoro-1H-1,2,4-triazole-1-carbonyl)-1-isopropyl-2,6-diazaspiro[3.6]decan-6-yl)-2-(((2R,7aS)-2-fluorotetrahydro-1H-pyrrolizin-7a(5H)-yl)methoxy)quinazolin-7-yl)-7-fluorobenzo[b]thiophene-3-carbonitrile], the IC50 is at most 500 nM.
On to `CC(C)[C@H]1N(C(=O)n2cnc(Cl)n2)C[C@]12CCCCN(c1nc(OC[C@@]34CCCN3C[C@H](F)C4)nc3c(F)c(-c4ccc(F)c5sc(N)c(C#N)c45)c(Cl)cc13)C2` [Compound 142, 2-amino-4-(6-chloro-4-((1R,4R)-2-(3-chloro-1H-1,2,4-triazole-1-carbonyl)-1-isopropyl-2,6-diazaspiro[3.6]decan-6-yl)-8-fluoro-2-(((2R,7aS)-2-fluorotetrahydro-1H-pyrrolizin-7a(5H)-yl)methoxy)quinazolin-7-yl)-7-fluorobenzo[b]thiophene-3-carbonitrile], for which the IC50 was at most 500 nM.
On to `N#Cc1c(N)sc2c(F)ccc(-c3c(Cl)cc4c(N5CCC(N(C(=O)n6cnc(Cl)n6)C6CC6)C5)nc(OC[C@@]56CCCN5C[C@H](F)C6)nc4c3F)c12` (stereo partly drawn) [Compound 143, N-(1-(7-(2-amino-3-cyano-7-fluorobenzo[b]thiophen-4-yl)-6-chloro-8-fluoro-2-(((2R,7aS)-2-fluorotetrahydro-1H-pyrrolizin-7a(5H)-yl)methoxy)quinazolin-4-yl)pyrrolidin-3-yl)-3-chloro-N-cyclopropyl-1H-1,2,4-triazole-1-carboxamide], for which the IC50 was at most 500 nM.
Take `CC(C)[C@@H]1[C@H](CN(C)c2nc(OC[C@@]34CCCN3C[C@H](F)C4)nc3c(F)c(-c4ccc(F)c5sc(N)c(C#N)c45)c(Cl)cc23)CN1C(=O)n1cnc(F)n1` [Compound 144, 2-amino-4-(6-chloro-8-fluoro-4-((((2R,3R)-1-(3-fluoro-1H-1,2,4-triazole-1-carbonyl)-2-isopropylazetidin-3-yl)methyl)(methyl)amino)-2-(((2R,7aS)-2-fluorotetrahydro-1H-pyrrolizin-7a(5H)-yl)methoxy)quinazolin-7-yl)-7-fluorobenzo[b]thiophene-3-carbonitrile]: the IC50 was at most 500 nM.
Same read-out and setting: as for `C[C@H]1CC[C@]2(CN(C(=O)n3cnc(Cl)n3)[C@@H]2C2CCC2)CN1c1nc(OC[C@@]23CCCN2C[C@H](F)C3)nc2c(F)c(-c3ccc(F)c4sc(N)c(C#N)c34)c(Cl)cc12` [Compound 146, 2-amino-4-(6-chloro-4-((1R,4R,7S)-2-(3-chloro-1H-1,2,4-triazole-1-carbonyl)-1-cyclobutyl-7-methyl-2,6-diazaspiro[3.5]nonan-6-yl)-8-fluoro-2-(((2R,7aS)-2-fluorotetrahydro-1H-pyrrolizin-7a(5H)-yl)methoxy)quinazolin-7-yl)-7-fluorobenzo[b]thiophene-3-carbonitrile], the figure is at most 500 nM; as for `N#Cc1c(N)sc2c(F)ccc(-c3c(Cl)cc4c(N5CCCC[C@@]6(C5)CN(C(=O)n5cnc(Cl)n5)[C@@H]6C5CC5)nc(OC[C@@]56CCCN5C[C@H](F)C6)nc4c3F)c12` [Compound 147, 2-amino-4-(6-chloro-4-((1R,4R)-2-(3-chloro-1H-1,2,4-triazole-1-carbonyl)-1-cyclopropyl-2,6-diazaspiro[3.6]decan-6-yl)-8-fluoro-2-(((2R,7aS)-2-fluorotetrahydro-1H-pyrrolizin-7a(5H)-yl)methoxy)quinazolin-7-yl)-7-fluorobenzo[b]thiophene-3-carbonitrile], at most 500 nM; as for `CN(C[C@@H]1CN(C(=O)n2cnc(F)n2)[C@@H]1C1(CF)CC1)c1nc(OC[C@@]23CCCN2C[C@H](F)C3)nc2c(F)c(-c3ccc(F)c4sc(N)c(C#N)c34)c(Cl)cc12` [Compound 148, 2-amino-4-(6-chloro-8-fluoro-4-((((2S,3R)-1-(3-fluoro-1H-1,2,4-triazole-1-carbonyl)-2-(1-(fluoromethyl)cyclopropyl)azetidin-3-yl)methyl)(methyl)amino)-2-(((2R,7aS)-2-fluorotetrahydro-1H-pyrrolizin-7a(5H)-yl)methoxy)quinazolin-7-yl)-7-fluorobenzo[b]thiophene-3-carbonitrile], at most 500 nM.
